Laboratory results published in paper PMC7176092, “Development of the first in vivo GPR17 ligand through an iterative drug discovery pipeline: A novel disease-modifying strategy for multiple sclerosis” (PLoS ONE, 2020).
Marks after values point to notes of the source that are not given here.

Columns and labels:
M5 = molecular target: T1, M5 (Homo sapiens, UniProt P08912); assay: Binding assay M5; details: reference compound
T1 construct: Eurofins Cerep (external service)
T1 sequence (P08912 1-532): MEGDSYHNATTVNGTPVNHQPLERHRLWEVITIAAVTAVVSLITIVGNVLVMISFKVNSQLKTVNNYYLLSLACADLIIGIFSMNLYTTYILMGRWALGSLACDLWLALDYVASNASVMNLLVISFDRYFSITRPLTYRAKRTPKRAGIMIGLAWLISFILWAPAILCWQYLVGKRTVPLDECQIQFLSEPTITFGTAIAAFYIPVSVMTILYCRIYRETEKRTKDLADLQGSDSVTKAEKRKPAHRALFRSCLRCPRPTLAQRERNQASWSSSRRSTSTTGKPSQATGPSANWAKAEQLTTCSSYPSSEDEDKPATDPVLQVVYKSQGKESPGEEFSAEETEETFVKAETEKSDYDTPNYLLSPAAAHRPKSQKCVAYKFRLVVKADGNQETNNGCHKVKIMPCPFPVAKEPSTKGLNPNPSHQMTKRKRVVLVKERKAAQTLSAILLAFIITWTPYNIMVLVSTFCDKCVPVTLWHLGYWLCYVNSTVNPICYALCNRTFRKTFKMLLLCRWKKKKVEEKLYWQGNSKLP

human GPR17 = molecular target: T2, human GPR17 (Homo sapiens, UniProt Q13304); assay: [35S]GTPγS binding assay; type: biochemical; details: for EC50: membranes of 1321N1 cells transfected with human GPR17, mean ± SEM of 3 experiments
T2 construct: HA; expressed in transfected cells
T2 sequence (Q13304 29-367): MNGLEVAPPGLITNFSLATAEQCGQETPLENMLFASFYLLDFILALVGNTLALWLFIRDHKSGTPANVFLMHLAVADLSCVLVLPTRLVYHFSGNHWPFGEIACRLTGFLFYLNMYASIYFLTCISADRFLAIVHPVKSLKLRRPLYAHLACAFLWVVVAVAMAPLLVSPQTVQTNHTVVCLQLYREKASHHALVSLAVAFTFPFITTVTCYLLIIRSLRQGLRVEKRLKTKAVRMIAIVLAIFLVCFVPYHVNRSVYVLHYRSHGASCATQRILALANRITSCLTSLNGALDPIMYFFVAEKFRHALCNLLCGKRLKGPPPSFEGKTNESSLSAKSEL
Protocol: [^35S]GTPγS binding assays were carried out as previously described. Briefly, control and astrocytoma 1321N1 cells stably transfected with human pcDNA3.1 (control cells) and human HA-tag GPR17 were homogenized in 5 mM Tris/HCl and 2 mM EDTA (pH 7.4) and centrifuged at 48,000g for 15 min at 4°C. The resulting pellets were washed in 50 mM Tris/HCl and 10 mM MgCl2 (pH 7.4). After protein dosage, aliquots of cell membranes were incubated with increasing concentrations of each investigated ligand (1 pM–10 μM) and GTPγS binding to activated G-proteins was quantified as previously described. Compounds were purchased from two external providers, i.e., Ambinter (Ambinter c/o Greenpharma, Orléans, France http://www.ambinter.com/) and Asinex (http://www.asinex.com/).
For analysis and graphic presentation of [^35S]GTPγS binding data, a nonlinear multipurpose curve fitting computer program (Graph-Pad Prism) was used. All data are presented as the mean ± SEM of three different experiments.
The selected 15 molecules were evaluated in our in-house [^35S]GTPγS functional assay in membranes from cells transfected with human GPR17. […] Moreover, this assay has been already successfully used in the past to measure the ability of both endogenous and novel synthetic compounds to activate GPR17 [25, 31]. All tested molecules were able to potently activate GPR17 with nanomolar/sub-nanomolar affinities. Concentration-response curves obtained for each selected compound are reported in S4 Fig.

CCR3 = molecular target: T3, CCR3 (Homo sapiens, UniProt P51677); assay: Cellular functional assay CCR3
T3 sequence (P51677 1-355): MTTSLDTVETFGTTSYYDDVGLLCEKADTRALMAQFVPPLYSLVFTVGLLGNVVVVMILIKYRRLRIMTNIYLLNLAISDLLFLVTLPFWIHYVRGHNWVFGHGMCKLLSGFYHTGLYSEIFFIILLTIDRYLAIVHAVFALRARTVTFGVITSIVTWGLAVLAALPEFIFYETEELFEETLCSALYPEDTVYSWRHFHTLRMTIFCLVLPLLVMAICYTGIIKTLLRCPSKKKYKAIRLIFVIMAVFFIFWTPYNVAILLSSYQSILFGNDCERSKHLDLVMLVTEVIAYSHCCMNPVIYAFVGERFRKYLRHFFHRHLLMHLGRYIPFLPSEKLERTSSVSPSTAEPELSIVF

mGluR5 = molecular target: T4, mGluR5 (Homo sapiens, UniProt P41594); assay: Binding assay mGluR5; details: reference compound
T4 construct: Eurofins Cerep (external service)
T4 sequence (P41594 21-1212): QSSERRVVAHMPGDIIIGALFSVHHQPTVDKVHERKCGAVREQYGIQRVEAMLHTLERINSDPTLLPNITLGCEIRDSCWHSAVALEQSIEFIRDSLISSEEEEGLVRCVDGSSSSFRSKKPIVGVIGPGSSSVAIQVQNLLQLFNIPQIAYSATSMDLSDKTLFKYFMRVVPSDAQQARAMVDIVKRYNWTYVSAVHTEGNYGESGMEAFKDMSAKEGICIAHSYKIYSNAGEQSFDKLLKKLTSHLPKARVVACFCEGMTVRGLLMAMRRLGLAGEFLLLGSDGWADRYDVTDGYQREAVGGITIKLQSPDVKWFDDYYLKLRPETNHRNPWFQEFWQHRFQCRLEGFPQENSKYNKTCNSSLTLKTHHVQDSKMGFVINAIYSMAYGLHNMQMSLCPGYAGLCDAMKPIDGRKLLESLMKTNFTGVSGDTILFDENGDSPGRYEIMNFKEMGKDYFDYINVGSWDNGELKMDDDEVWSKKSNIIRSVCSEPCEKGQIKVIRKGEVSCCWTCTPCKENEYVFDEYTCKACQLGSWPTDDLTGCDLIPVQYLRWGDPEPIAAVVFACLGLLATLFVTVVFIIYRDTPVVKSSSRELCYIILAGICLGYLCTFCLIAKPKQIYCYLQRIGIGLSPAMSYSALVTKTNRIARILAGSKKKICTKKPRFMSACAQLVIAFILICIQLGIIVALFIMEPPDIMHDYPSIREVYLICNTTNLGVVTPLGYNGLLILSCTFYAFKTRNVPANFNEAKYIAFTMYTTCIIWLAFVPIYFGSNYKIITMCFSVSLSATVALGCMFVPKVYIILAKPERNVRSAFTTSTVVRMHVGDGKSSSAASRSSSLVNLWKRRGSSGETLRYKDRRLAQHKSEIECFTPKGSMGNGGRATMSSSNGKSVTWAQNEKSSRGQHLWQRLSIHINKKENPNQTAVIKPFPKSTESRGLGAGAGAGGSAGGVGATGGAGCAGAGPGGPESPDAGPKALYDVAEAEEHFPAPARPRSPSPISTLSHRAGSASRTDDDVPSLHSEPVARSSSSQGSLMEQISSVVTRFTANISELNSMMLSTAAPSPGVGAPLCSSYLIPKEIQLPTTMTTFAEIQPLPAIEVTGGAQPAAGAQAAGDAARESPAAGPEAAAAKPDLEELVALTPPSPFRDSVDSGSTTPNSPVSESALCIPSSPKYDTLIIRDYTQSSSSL

CXCR2 = molecular target: T5, CXCR2 (Homo sapiens, UniProt P25025); assay: Binding assay CXCR2; details: reference compound
T5 construct: Eurofins Cerep (external service)
T5 sequence (P25025 1-360): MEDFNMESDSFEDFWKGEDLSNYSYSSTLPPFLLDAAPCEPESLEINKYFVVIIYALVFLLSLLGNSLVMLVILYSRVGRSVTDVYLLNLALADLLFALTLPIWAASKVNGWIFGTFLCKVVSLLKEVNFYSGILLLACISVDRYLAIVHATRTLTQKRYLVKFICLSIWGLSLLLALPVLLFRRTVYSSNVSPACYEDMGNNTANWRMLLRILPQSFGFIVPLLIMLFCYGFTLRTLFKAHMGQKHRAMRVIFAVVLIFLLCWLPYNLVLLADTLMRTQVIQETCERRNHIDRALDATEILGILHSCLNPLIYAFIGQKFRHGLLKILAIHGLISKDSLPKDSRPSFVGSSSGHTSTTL

CCR2 = molecular target: T6, CCR2 (Homo sapiens, UniProt P41597); assay: Binding assay CCR2; details: reference compound
T6 construct: Eurofins Cerep (external service)
T6 sequence (P41597 whole entry): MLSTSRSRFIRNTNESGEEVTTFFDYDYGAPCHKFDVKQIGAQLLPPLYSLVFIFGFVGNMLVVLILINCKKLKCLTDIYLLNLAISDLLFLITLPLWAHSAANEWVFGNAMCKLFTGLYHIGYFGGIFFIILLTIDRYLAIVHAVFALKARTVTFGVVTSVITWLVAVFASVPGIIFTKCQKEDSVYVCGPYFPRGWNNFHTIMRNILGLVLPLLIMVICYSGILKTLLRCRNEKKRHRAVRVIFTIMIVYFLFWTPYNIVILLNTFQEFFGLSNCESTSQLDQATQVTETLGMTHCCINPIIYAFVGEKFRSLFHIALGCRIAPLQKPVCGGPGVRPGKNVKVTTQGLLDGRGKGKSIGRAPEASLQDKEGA

P2Y = assay: Binding assay P2Y; set-up: species or system human; details: reference compound
CX3CR1 = molecular target: T7, CX3CR1 (Homo sapiens, UniProt P49238); assay: Cellular functional assay CX3CR1; details: reference agonist
T7 sequence (P49238 1-355): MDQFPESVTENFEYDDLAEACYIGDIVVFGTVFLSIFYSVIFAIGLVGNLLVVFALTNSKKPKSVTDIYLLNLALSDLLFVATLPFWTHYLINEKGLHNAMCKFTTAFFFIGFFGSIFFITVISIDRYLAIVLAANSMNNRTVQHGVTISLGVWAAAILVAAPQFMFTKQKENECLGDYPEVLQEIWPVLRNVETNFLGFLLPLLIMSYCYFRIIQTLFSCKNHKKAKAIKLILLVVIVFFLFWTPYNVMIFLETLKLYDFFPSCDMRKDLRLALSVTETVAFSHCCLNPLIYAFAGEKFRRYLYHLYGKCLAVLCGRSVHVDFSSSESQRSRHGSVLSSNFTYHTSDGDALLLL

[1] = standard LTD4 50 nM set to 100% († compounds)
[2] = standard LTC4 50 nM set to 100% (¶ compounds)

C[N+]1(C)CCC(OC(=O)C(c2ccccc2)c2ccccc2)CC1 [Compound 4-DAMP, 4-DAMP, reference compound]
IC50 (M5): 0.73 nM | Ki (M5): 0.37 nM

Cn1c(SCC(=O)Nc2ccc(Cl)cc2)nnc1-c1ccc(NC(=O)c2ccccc2)cc1 [Compound 4]
EC50 (human GPR17): 0.43 ± 0.08 nM | % Emax (ratio vs Emax of the standard) (human GPR17; [1]): 110.8% | Emax (% vs basal) (human GPR17; mean ± SEM): 160.0 ± 10.6%

CCc1ccccc1-n1c(SCC(=O)Nc2ccccc2Cl)nnc1-c1ccccc1O [Compound 6]
EC50 (human GPR17): 0.52 ± 0.09 nM | % Emax (ratio vs Emax of the standard) (human GPR17; [1]): 93.5 ^* % | Emax (% vs basal) (human GPR17; mean ± SEM): 135.0 ± 10.2%

Cc1cccc(-c2n[nH]c(SCC(=O)Nc3cccc4ccccc34)n2)c1 [Compound 7]
EC50 (human GPR17): 0.48 ± 0.09 nM | % Emax (ratio vs Emax of the standard) (human GPR17; [1]): 104.8% | Emax (% vs basal) (human GPR17; mean ± SEM): 151.3 ± 6.7%

Cc1nc2ccc(NC(=O)CSc3nnc(-c4ccccc4)[nH]3)cc2[nH]1 [Compound 8]
EC50 (human GPR17): 0.24 ± 0.02 nM | % Emax (ratio vs Emax of the standard) (human GPR17; [1]): 100.3% | Emax (% vs basal) (human GPR17; mean ± SEM): 144.8 ± 6.4%

Cc1cccc(-c2n[nH]c(SCC(=O)Nc3ccccc3)n2)c1 [Compound 10]
EC50 (human GPR17): 0.24 ± 0.06 nM | % Emax (ratio vs Emax of the standard) (human GPR17; [1]): 98.3% | Emax (% vs basal) (human GPR17; mean ± SEM): 142.0 ± 5.8%

COc1ccc(-n2c(SCC(=O)Nc3cc(C(C)(C)C)no3)nnc2-c2ccccc2OC)cc1 [Compound 11]
EC50 (human GPR17): 22.5 ± 4.3 nM | % Emax (ratio vs Emax of the standard) (human GPR17; [2]): 95.3% | Emax (% vs basal) (human GPR17; mean ± SEM): 134.3 ± 8.8%

CCOc1ccc(-n2c(SCC(=O)Nc3ccc(Cl)c(C(F)(F)F)c3)nnc2-c2cccc(C)c2)cc1 [Compound 12]
EC50 (human GPR17): 7.11 ± 1.96 nM | % Emax (ratio vs Emax of the standard) (human GPR17; [2]): 90.6 ^* % | Emax (% vs basal) (human GPR17; mean ± SEM): 127.7 ± 4.1%

CCOc1ccc(-n2c(SCC(=O)Nc3ccc4c(c3)OCCO4)nnc2-c2ccccc2Cl)cc1 [Compound 13]
EC50 (human GPR17): 3.29 ± 0.28 nM | % Emax (ratio vs Emax of the standard) (human GPR17; [2]): 100.2% | Emax (% vs basal) (human GPR17; mean ± SEM): 141.3 ± 7.6%

COc1ccc(-c2nnc(SCC(=O)Nc3ncc(Cc4ccc(Cl)cc4)s3)n2-c2ccccc2)cc1OC [Compound 14]
EC50 (human GPR17): 2.7 ± 0.4 nM | % Emax (ratio vs Emax of the standard) (human GPR17; [2]): 98.8% | Emax (% vs basal) (human GPR17; mean ± SEM): 139.3 ± 2.5%

COc1ccccc1-c1nnc(SCC(=O)Nc2ncc3c(n2)CCCC3=O)[nH]1 [Compound 15]
EC50 (human GPR17): 2.9 ± 0.1 nM | % Emax (ratio vs Emax of the standard) (human GPR17; [2]): 97.23% | Emax (% vs basal) (human GPR17; mean ± SEM): 137.1 ± 1.3%

COc1ccccc1-c1nnc(SCC(=O)Nc2ncc3c(n2)CC(C)(C)CC3=O)[nH]1 [Compound 16]
EC50 (human GPR17): 3.45 ± 0.5 nM | % Emax (ratio vs Emax of the standard) (human GPR17; [2]): 99.0% | Emax (% vs basal) (human GPR17; mean ± SEM): 139.6 ± 1.5%

COc1ccccc1-c1nnc(SCC(=O)Nc2nccs2)[nH]1 [Compound 17]
EC50 (human GPR17): 8.48 ± 0.9 nM | % Emax (ratio vs Emax of the standard) (human GPR17; [2]): 96.6% | Emax (% vs basal) (human GPR17; mean ± SEM): 136.2 ± 0.5%

O=C(CSc1nnc2n(Cc3ccc(Cl)cc3)c3ccccc3n12)N1CCc2ccccc2C1 [Compound 19]
EC50 (human GPR17): 9.5 ± 1.47 nM | % Emax (ratio vs Emax of the standard) (human GPR17; [2]): 108.5 ^* % | Emax (% vs basal) (human GPR17; mean ± SEM): 153.7 ± 1.1%

CC[N+]1(C/C2=C/CCCCCC2)CCC(NC(=O)C2c3cc(Cl)ccc3Oc3ccc(Cl)cc32)CC1 (stereo not drawn) [Compound J113863, J113863, reference compound]
IC50 (CCR3; reference antagonist): 8.9 nM

N[C@@H](Cn1oc(=O)[nH]c1=O)C(=O)O [L-Quisqualate, reference compound]
IC50 (mGluR5): 67 nM | Ki (mGluR5): 14 nM

CCCCC/C=C\C\C=C/C=C/C=C/[C@@H](SC[C@H](NC(=O)CC[C@H](N)C(=O)O)C(=O)NCC(=O)O)[C@@H](O)CCCC(=O)O [LTC4, reference compound]
Emax (% vs basal) (human GPR17; reference agonist at 50 nM): 141.0 ± 3.9%

CCCCC/C=C\C\C=C/C=C/C=C/[C@@H](SC[C@H](N)C(=O)NCC(=O)O)[C@@H](O)CCCC(=O)O [LTD4, reference compound]
Emax (% vs basal) (human GPR17; reference agonist at 50 nM): 144.4 ± 7.1%

IL-8: chemokine, reference compound for CXCR2 binding
IC50 (CXCR2): 0.26 nM | Ki (CXCR2): 0.12 nM

MCP-1: chemokine, reference compound for CCR2 binding
IC50 (CCR2): 0.072 nM | Ki (CCR2): 0.029 nM

dATPS [reference compound]
IC50 (P2Y): 51 nM | Ki (P2Y): 25 nM

B1: eotaxin 2: chemokine, reference agonist for CCR3 (protein, UniProt O00175 27-119, looked up)
C-C motif chemokine 24: VVIPSPCCMFFVSKRIPENRVVSYQLSSRSTCLKAGVIFTTKKGQQFCGDPKQEWVQRYMKNLDAKQKKASPRARAVAVKGPVQRYPGNQTTC
EC50 (CCR3; reference agonist): 6.4 nM

B2: CX3CL1: chemokine, reference agonist for CX3CR1 (protein, UniProt P78423 25-397, looked up)
Fractalkine: QHHGVTKCNITCSKMTSKIPVALLIHYQQNQASCGKRAIILETRQHRLFCADPKEQWVKDAMQHLDRQAAALTRNGGTFEKQIGEVKPRTTPAAGGMDESVVLEPEATGESSSLEPTPSSQEAQRALGTSPELPTGVTGSSGTRLPPTPKAQDGGPVGTELFRVPPVSTAATWQSSAPHQPGPSLWAEAKTSEAPSTQDPSTQASTASSPAPEENAPSEGQRVWGQGQSPRPENSLEREEMGPVPAHTDAFQDWGPGSMAHVSVVPVSSEGTPSREPVASGSWTPKAEEPIHATMDPQRLGVLITPVPDAQAATRRQAVGLLAFLGLLFCLGVAMFTYQSLQGCPRKMAGEMAEGLRYIPRSCGSNSYVLVPV
EC50 (CX3CR1): 2.2 nM
